Laboratory results reported in article PMC6025042, “HSQC-TOCSY Fingerprinting-Directed Discovery of Antiplasmodial Polyketides from the Marine Ascidian-Derived Streptomyces sp. (USC-16018)” (Marine Drugs, 2018).
Where two headings read alike, the source gives them in different places.

Legend:
Plasmodium yoelii = details: cited from earlier work; for doses needed to clear the animals from the parasites: P. yoelii infected mice
P. falciparum 3D7 = assay: antiplasmodial imaging assay, P. falciparum 3D7; assay type: cell-based, Plasmodium falciparum; details: for inhibition at 40 µM / % Inhibition at 40 µM, P. falciparum 3D7: chloroquine sensitive strain; for IC50: read-out: IC50, P. falciparum 3D7
Method: (§1) The parasites were subjected to two rounds of sorbitol synchronization before undergoing compound treatment. The ring stage parasites were exposed to the experimental compounds in 384-wells imaging microplates (PerkinElmer CellCarrier, Waltham, MA, USA), as previously described in Reference. The plates were incubated for 72h at 37 °C, 90% N2, 5% CO2, 5% O2, then the parasites were stained with 2-(4-amidinophenyl)-1H–indole-6-carboxamidine (DAPI), and imaged using an Opera QEHS micro-plate confocal imaging system (PerkinElmer, Waltham, MA, USA). The images were analysed as previously described in Reference.
(§2) The raw data were normalized using the in-plate positive and negative controls to obtain the normalized % inhibition data, which was then used to calculate the IC50 values through a 4-parameter logistic curve fitting in the GraphPad Prism (Version 6.0, La Jolla, CA, USA). The experiments were carried out in two independent biological replicates, each consisting of two technical replicates.

HEK-293 Cells = assay: cells; assay type: cell-based; details: for inhibition at 40 µM: read-out: % Inhibition at 40 µM, HEK-293 Cells; for IC50: value in brackets
Method: Human Embryonic Kidney cells (HEK293) were maintained in the Dulbecco’s Modified Eagle Medium (DMEM) medium supplemented with 10% FBS. The HEK293 cells were exposed to the compounds in TC-treated 384-wells plates (Falcon, Durham, NC, USA). […] After an additional 5–6 h incubation at standard conditions, the total fluorescence (excitation/emission: 530 nm/595 nm) was measured using the Envision plate reader (PerkinElmer, Waltham, MA, USA).
as §2

P. falciparum Dd2 = assay: antiplasmodial imaging assay, P. falciparum Dd2; assay type: cell-based, Plasmodium falciparum; details: for inhibition at 40 µM / % Inhibition at 40 µM, P. falciparum Dd2: chloroquine- and pyrimethamine-resistant strain; for IC50: read-out: IC50, P. falciparum Dd2
Method: as §1, §2

[1] = test system: chloroquine-sensitive and chloroquine-resistant Plasmodium falciparum strains; design: method as in PMID 14514358; details: chloroquine-sensitive and chloroquine-resistant strains equally; read-out: IC50, growth of P. falciparum; cited from earlier work
[2] = design: method as in PMID 21454186; details: cited from earlier work
K1 strain = test system: K1 strain; design: method as in PMID 27554496; details: read-out: IC50 against the K1 strain; cited from earlier work
[3] = Plasmodium falciparum, 3D7, 40 µM, 72 h, read-out: % Inhibition at 40 µM, P. falciparum 3D7
[4] = Plasmodium falciparum, 3D7, 72 h, value in brackets
[5] = Homo sapiens, HEK293, 40 µM, 72 h
[6] = Plasmodium falciparum, DD2, 40 µM, 72 h, read-out: % Inhibition at 40 µM, P. falciparum Dd2
[7] = Plasmodium falciparum, DD2, 72 h, value in brackets
[8] = Plasmodium falciparum, 3D7, 72 h, read-out: % Inhibition at 40 µM, P. falciparum 3D7, 40 µM, 72 h
[9] = Plasmodium falciparum, DD2, 72 h, read-out: % Inhibition at 40 µM, P. falciparum Dd2, 40 µM, 72 h
[10] = 40 µM, 72 h, listed as Herbimycin G (1)
[11] = 40 µM, 72 h, listed as Elaiophylin (2)
[12] = 72 h, value in brackets, listed as Elaiophylin (2)

For `C=CCNC1=C2C[C@@H](C)C[C@H](OC)[C@H](O)[C@@H](C)/C=C(\C)[C@H](OC(N)=O)[C@@H](OC)/C=C\C=C(/C)C(=O)NC(=CC1=O)C2=O` [17-AAG, 17-N-allylamino-17-demethoxygeldanamycin], the “doses needed to clear the animals from the parasites” value (Plasmodium yoelii) is listed as “a second dose of 17-AAG was needed”, the “efficacy against Plasmodium yoelii in mouse models” value (Plasmodium yoelii; intra-peritoneal, doses of 7.2 mg/kg) is listed as “effective against Plasmodium yoelii in mouse models” and the “time to complete clearance of parasitemia after reinfection” value (Plasmodium yoelii; treated mice reinfected with P. yoelii) is listed as 9 days.
Molecule `C[C@H]1[C@H](OC(=O)CCC(=O)O)O[C@@H]2O[C@@]3(C)CC[C@H]4[C@H](C)CC[C@@H]1[C@@]24OO3` [Artesunate] has an inhibition at 40 µM (P. falciparum 3D7; [3]) of 99.6%, an IC50 (P. falciparum 3D7; [4]) of 0.9 nM and an inhibition at 40 µM (HEK-293 Cells; [5]) of 50.6%. The inhibition at 40 µM (P. falciparum Dd2; [6]) was 98.4% and the IC50 (P. falciparum Dd2; [7]) was 1.3 nM.
In the case of `CCN(CC)CCCC(C)Nc1ccnc2cc(Cl)ccc12` (stereo not shown) [Chloroquine], the inhibition at 40 µM (P. falciparum 3D7; [8]) is listed as 98.8%, the IC50 (P. falciparum 3D7; Plasmodium falciparum, 3D7, 72 h) is listed as 10 nM and the “doses needed to clear the animals from the parasites” value (Plasmodium yoelii) is listed as “a single dose of chloroquine was sufficient to fully clear the animals from the parasites”. The inhibition at 40 µM (HEK-293 Cells; Homo sapiens, HEK293, 72 h) was 40.9%, the inhibition at 40 µM (P. falciparum Dd2; [9]) was 96.5% and the IC50 (P. falciparum Dd2; Plasmodium falciparum, DD2, 72 h) was 87.9 nM.
`C[C@H]1[C@@H](O)O[C@@H]2O[C@@]3(C)CC[C@H]4[C@H](C)CC[C@@H]1[C@@]24OO3` [Dihydroartemisinin] gave an inhibition at 40 µM (P. falciparum 3D7; [3]) of 99.9%, an IC50 (P. falciparum 3D7; [4]) of 0.4 nM and an inhibition at 40 µM (HEK-293 Cells; [5]) of 37.9%. It also gave an inhibition at 40 µM (P. falciparum Dd2; [6]) of 98% and an IC50 (P. falciparum Dd2; [7]) of 0.6 nM.
For `COC1=C2C[C@@H](C)C[C@H](OC)[C@H](O)[C@@H](C)/C=C(\C)[C@H](OC(N)=O)[C@@H](OC)/C=C\C=C(/C)C(=O)NC(=CC1=O)C2=O` [Geld, geldanamycin], the IC50 [1] is given as 20 nM and the “water solubility (in words)” value [2] is given as “low water solubility”.
In the case of `COc1ccc(C[C@H](N)C(=O)N[C@H]2[C@@H](O)[C@H](n3cnc4c(N(C)C)ncnc43)O[C@@H]2CO)cc1` [Puromycin], the inhibition at 40 µM (P. falciparum 3D7; [3]) is reported as 99%, the IC50 (P. falciparum 3D7; [4]) is reported as 149 nM and the inhibition at 40 µM (HEK-293 Cells; [5]) is reported as 103%. The IC50 (HEK-293 Cells; Homo sapiens, HEK293, 72 h) was 1410 nM, the inhibition at 40 µM (P. falciparum Dd2; [6]) was 99.1% and the IC50 (P. falciparum Dd2; [7]) was 114 nM.
For `CCc1nc(N)nc(N)c1-c1ccc(Cl)cc1` [Pyrimethamine], the inhibition at 40 µM (P. falciparum 3D7; [3]) was 98.7%, the IC50 (P. falciparum 3D7; [4]) was 4.7 nM and the inhibition at 40 µM (HEK-293 Cells; [5]) was 68.4%. It also gave an inhibition at 40 µM (P. falciparum Dd2; [6]) of 23.2%.
Molecule `COc1ccc2nc3cc(Cl)ccc3c(Nc3cc(CN4CCCC4)c(O)c(CN4CCCC4)c3)c2n1` [Pyronaridine] has an inhibition at 40 µM (P. falciparum 3D7; [3]) of 99.9%, an IC50 (P. falciparum 3D7; [4]) of 7.4 nM and an inhibition at 40 µM (HEK-293 Cells; [5]) of 98.7%. For the same molecule, the IC50 (HEK-293 Cells; Homo sapiens, HEK293, 72 h) was 2830 nM, the inhibition at 40 µM (P. falciparum Dd2; [6]) was 97.8% and the IC50 (P. falciparum Dd2; [7]) was 8.3 nM.
With `CO[C@H]1[C@@H](OC)C[C@H](C)[C@@H](OC)C2=C[C@@H](O)C[C@@H](NC(=O)/C(C)=C/C=C\[C@H](OC)[C@@H](OC(N)=O)/C(C)=C/[C@@H]1C)C2=O` [compound 1, herbimycin G] the “% Inhibition at 40 µM, P. falciparum 3D7” value (P. falciparum 3D7; 40 µM, 72 h) was greater than 75%, the “% Inhibition at 40 µM, P. falciparum 3D7” value (P. falciparum 3D7; [10]) was 77.2% and the “antiplasmodial activity (in words)” value (P. falciparum 3D7; 3D7 and Dd2 strains) was “weak antiplasmodial activity”. For the same molecule, the inhibition at 40 µM (P. falciparum 3D7; [8]) was 77%, the “% Inhibition at 40 µM, HEK-293 Cells” value (HEK-293 Cells; 40 µM, 72 h) was “no effect” and the “cytotoxicity (in words)” value (HEK-293 Cells; HEK293) was “no cytotoxicity”. The “% Inhibition at 40 µM, P. falciparum Dd2” value (P. falciparum Dd2; [10]) was 81.7% and the inhibition at 40 µM (P. falciparum Dd2; [9]) was greater than 75%.
In the case of `CC(C)C[C@@H]1NC(=O)[C@@H]2CCCN2C1=O` [compound 3, Cyclo-L-Pro-L-Leu], the inhibition at 40 µM (P. falciparum 3D7; [3]) is reported as 45.9%, the “% Inhibition at 40 µM, HEK-293 Cells” value (HEK-293 Cells; 40 µM, 72 h) is reported as “no effect” and the inhibition at 40 µM (P. falciparum Dd2; [6]) is reported as 39%.
In the case of `O=C1N[C@@H](Cc2ccccc2)C(=O)N2CCC[C@@H]12` [compound 4, Cyclo-L-Pro-L-Phe], the “% Inhibition at 40 µM, P. falciparum 3D7” value (P. falciparum 3D7; 40 µM, 72 h) is reported as “no effect”, the “% Inhibition at 40 µM, HEK-293 Cells” value (HEK-293 Cells; 40 µM, 72 h) is reported as “no effect” and the “% Inhibition at 40 µM, P. falciparum Dd2” value (P. falciparum Dd2; 40 µM, 72 h) is reported as “no effect”.
For `CC(C)[C@@H]1NC(=O)[C@@H]2CCCN2C1=O` [compound 5, Cyclo-L-Pro-L-Val], the “% Inhibition at 40 µM, P. falciparum 3D7” value (P. falciparum 3D7; 40 µM, 72 h) was “no effect”, the “% Inhibition at 40 µM, HEK-293 Cells” value (HEK-293 Cells; 40 µM, 72 h) was “no effect” and the “% Inhibition at 40 µM, P. falciparum Dd2” value (P. falciparum Dd2; 40 µM, 72 h) was “no effect”.
For `O=C1N[C@@H](Cc2ccc(O)cc2)C(=O)N2CCC[C@@H]12` [compound 6, Cyclo-L-Pro-L-Tyr], the “% Inhibition at 40 µM, P. falciparum 3D7” value (P. falciparum 3D7; 40 µM, 72 h) was “no effect”, the “% Inhibition at 40 µM, HEK-293 Cells” value (HEK-293 Cells; 40 µM, 72 h) was “no effect” and the “% Inhibition at 40 µM, P. falciparum Dd2” value (P. falciparum Dd2; 40 µM, 72 h) was “no effect”.
With elaiophylin [compound 2] the “% Inhibition at 40 µM, P. falciparum 3D7” value (P. falciparum 3D7; 40 µM, 72 h) was greater than 75%, the “% Inhibition at 40 µM, P. falciparum 3D7” value (P. falciparum 3D7; [11]) was 96.6% and the IC50 (P. falciparum 3D7; [12]) was 778 nM. For the same molecule, the IC50 (K1 strain) was 214 nM, the “% Inhibition at 40 µM, HEK-293 Cells” value (HEK-293 Cells; 40 µM, 72 h) was 101.9% and the IC50 (HEK-293 Cells; 72 h) was 1440 nM. The “cytotoxicity (in words)” value (HEK-293 Cells; HEK293) was “highly cytotoxic”, the “% Inhibition at 40 µM, P. falciparum Dd2” value (P. falciparum Dd2; 40 µM, 72 h) was greater than 75% and the “% Inhibition at 40 µM, P. falciparum Dd2” value (P. falciparum Dd2; [11]) was 86.1%. The IC50 (P. falciparum Dd2; [12]) was 598 nM.
